In brackets after ≈: the same amount, converted by molar mass. A value given as a limit tells only on which side of the number the result lay.

What all share (type): cell-based
One experiment relates to E. coli ATCC 25922. As to the kind of experiment: microbe, parasite or virus in culture. As to conditions: Escherichia coli, ATCC25922, read-out: MIC E. coli 25922.
Another experiment deals with E. coli AG100. As to the kind of experiment: microbe, parasite or virus in culture. The note with it: Escherichia coli, AG100, read-out: MIC E. coli AG100.
In another experiment the test system is E. coli 901C. As to the kind of experiment: microbe, parasite or virus in culture. The note with it: Escherichia coli, read-out: MIC E. coli 901C.
In the next experiment the test system is E. coli D22. Kind of experiment: microbe, parasite or virus in culture. As to conditions: Escherichia coli, D22, read-out: MIC E. coli D22.
Another experiment relates to E. coli AG100A. As to the kind of experiment: Broth microdilution MIC in CAMHB. As to conditions: Escherichia coli, read-out: MIC E. coli AG100A. On the technique in general: Dilution methods test growth across graded concentrations, often in twofold steps.
The next experiment relates to K. pneumoniae 848844. As to the kind of experiment: microbe, parasite or virus in culture. As to conditions: Klebsiella pneumoniae, 848844, read-out: MIC K. pneumoniae 848844.
The test system of a further experiment is K. pneumoniae UMM. As to the kind of experiment: microbe, parasite or virus in culture. As to conditions: Klebsiella pneumoniae, read-out: MIC K. pneumoniae UMM.
In another experiment the test system is K. pneumoniae SI-117. Kind of experiment: microbe, parasite or virus in culture. As to conditions: Klebsiella pneumoniae, SI117, read-out: MIC K. pneumoniae SI-117.
The test system of another experiment is P. aeruginosa ATCC 27853. Kind of experiment: microbe, parasite or virus in culture. As to conditions: Pseudomonas aeruginosa, ATCC27853, read-out: MIC P. aeruginosa ATCC 27853.
A further experiment relates to A. baumannii ATCC 19606. Kind of experiment: microbe, parasite or virus in culture. As to conditions: Acinetobacter baumannii, ATCC19606, read-out: MIC, A. baumannii ATCC 19606.
Another experiment relates to P. aeruginosa ATCC 35151. As to the kind of experiment: microbe, parasite or virus in culture. As to conditions: Pseudomonas aeruginosa, ATCC35151, read-out: MIC P. aeruginosa ATCC 35151.
In experiment [1] the test system is P. aeruginosa (ΔmexAB-oprM). As to the kind of experiment: Broth microdilution MIC in CAMHB. The note with it: Pseudomonas aeruginosa; read-out: MIC P. aeruginosa ΔmexAB-oprM.
A further experiment has as its system B. pseudomallei Bp82. As to the kind of experiment: microbe, parasite or virus in culture. The note with it: Burkholderia pseudomallei, BP82, read-out: Minimum inhibitory concentration, B. pseudomallei Bp82.
Another experiment relates to P. aeruginosa CDC-0110. Kind of experiment: microbe, parasite or virus in culture. The note with it: Pseudomonas aeruginosa, CDC0110, read-out: Minimum inhibitory concentration, P. aeruginosa CDC-0110.

Consider `O=C(O)c1c(F)ccc2c1OB(O)[C@@H](NC(=O)[C@H](NC(=O)N1CCN(S(=O)(=O)c3ccc(O)c(O)c3Cl)C1=O)c1ccc(P(=O)(O)O)cc1)C2` [Example 506, (R)-3-((R)-2-(3-((2-chloro-3,4-dihydroxyphenyl)sulfonyl)-2-oxoimidazolidine-1-carboxamido)-2-(4-phosphonophenyl)acetamido)-7-fluoro-2-hydroxy-3,4-dihydro-2H-benzo[e][1,2]oxaborinine-8-carboxylic acid], for which the MIC in the experiment with E. coli ATCC 25922 is under 1 mg/L; with E. coli AG100 it was under 1 mg/L; in the experiment with E. coli 901C, under 1 mg/L; in the experiment on E. coli D22 it was under 1 mg/L; in the experiment with E. coli AG100A, under 1 mg/L; in the experiment on K. pneumoniae 848844, 2 to 4 mg/L (≈ 2.64 to 5.29 µM). Also, the MIC (in the experiment with K. pneumoniae UMM; with K. pneumoniae SI-117; with P. aeruginosa ATCC 27853; in the experiment with A. baumannii ATCC 19606; in the experiment on P. aeruginosa ATCC 35151; in [1]) was under 1 mg/L in each case. For the same molecule, the MIC with B. pseudomallei Bp82 and in the experiment with P. aeruginosa CDC-0110 was under 1 mg/L each time.

On to `O=C(O)c1c(F)ccc2c1OB(O)[C@@H](NC(=O)C(NC(=O)N1CCN(S(=O)(=O)c3ccc(O)c(O)c3Cl)C1=O)c1ccc(P(=O)(O)O)cc1)C2` (stereo partly drawn) [Example 505, (3R)-3-(2-(3-((2-chloro-3,4-dihydroxyphenyl)sulfonyl)-2-oxoimidazolidine-1-carboxamido)-2-(4-phosphonophenyl)acetamido)-7-fluoro-2-hydroxy-3,4-dihydro-2H-benzo[e][1,2]oxaborinine-8-carboxylic acid], for which the MIC with E. coli ATCC 25922, in the experiment with E. coli AG100, in the experiment with E. coli 901C, in the experiment with E. coli D22, in the experiment with E. coli AG100A and with K. pneumoniae 848844 was under 1 mg/L in each case. The MIC (in the experiment with K. pneumoniae UMM; with K. pneumoniae SI-117; in the experiment on P. aeruginosa ATCC 27853; in the experiment on A. baumannii ATCC 19606; in the experiment on P. aeruginosa ATCC 35151; in [1]) was under 1 mg/L throughout. Further, the MIC in the experiment with B. pseudomallei Bp82 and in the experiment on P. aeruginosa CDC-0110 was under 1 mg/L each time.

`O=C(O)c1cccc2c1OB(O)[C@@H](NC(=O)[C@H](NC(=O)N1CCN(S(=O)(=O)c3ccc(O)c(O)c3Cl)C1=O)c1ccc(P(=O)(O)O)cc1)C2` [Example 509, (R)-3-((R)-2-(3-((2-chloro-3,4-dihydroxyphenyl)sulfonyl)-2-oxoimidazolidine-1-carboxamido)-2-(4-phosphonophenyl)acetamido)-2-hydroxy-3,4-dihydro-2H-benzo[e][1,2]oxaborinine-8-carboxylic acid]: the MIC with E. coli ATCC 25922, in the experiment with E. coli AG100, in the experiment on E. coli 901C, in the experiment with E. coli D22, in the experiment on E. coli AG100A and in the experiment on K. pneumoniae 848844 was under 1 mg/L throughout. Besides, the MIC (with K. pneumoniae UMM; in the experiment with K. pneumoniae SI-117; with P. aeruginosa ATCC 27853; in the experiment on A. baumannii ATCC 19606; in the experiment with P. aeruginosa ATCC 35151; in [1]) was under 1 mg/L in each case. The MIC in the experiment on B. pseudomallei Bp82 and in the experiment with P. aeruginosa CDC-0110 was under 1 mg/L each time.

Consider `O=C(O)c1c(F)ccc2c1OB(O)[C@@H](NC(=O)[C@H](NC(=O)N1CCN(C3CCN(C(=O)c4cc(O)c(O)c(Cl)c4)CC3)C1=O)c1ccc(P(=O)(O)O)cc1)C2` [Example 496, (R)-3-((R)-2-(3-(1-(3-chloro-4,5-dihydroxybenzoyl)piperidin-4-yl)-2-oxoimidazolidine-1-carboxamido)-2-(4-phosphonophenyl)acetamido)-7-fluoro-2-hydroxy-3,4-dihydro-2H-benzo[e][1,2]oxaborinine-8-carboxylic acid], for which the MIC in the experiment on B. pseudomallei Bp82 and in the experiment with P. aeruginosa CDC-0110 was under 1 mg/L each time.

The record behind these values is patent publication US20240270762A1, “PENICILLIN-BINDING PROTEIN INHIBITORS” (priority 2021, published 2024).
